Measurements from patent publication US9540371B2, “Substituted quinazolin-4(3H)-ones, pyrido[3,4-d]pyrimidin-4(3H)-ones, pyrido[3,2-d]pyrimidin-4(3H)-ones and pyrido[2,3-d]pyrimidin-4(3H)-ones as positive allosteric modulators of muscarinic acetycholine receptor M1” (Vanderbilt University, priority 2013, dated 2017).

Each molecule was assayed against T1, mAChR M1 (UniProt P11229) (assay: mAChR M1 cell-based functional assay (calcium mobilization, PAM mode)). Conditions: calcium flux in CHO-K1 cells expressing mAChR M1; increase in the EC20 acetylcholine response; >10 μM estimated where no plateau but >20% increase in ACh response.
T1 sequence (P11229 1-460): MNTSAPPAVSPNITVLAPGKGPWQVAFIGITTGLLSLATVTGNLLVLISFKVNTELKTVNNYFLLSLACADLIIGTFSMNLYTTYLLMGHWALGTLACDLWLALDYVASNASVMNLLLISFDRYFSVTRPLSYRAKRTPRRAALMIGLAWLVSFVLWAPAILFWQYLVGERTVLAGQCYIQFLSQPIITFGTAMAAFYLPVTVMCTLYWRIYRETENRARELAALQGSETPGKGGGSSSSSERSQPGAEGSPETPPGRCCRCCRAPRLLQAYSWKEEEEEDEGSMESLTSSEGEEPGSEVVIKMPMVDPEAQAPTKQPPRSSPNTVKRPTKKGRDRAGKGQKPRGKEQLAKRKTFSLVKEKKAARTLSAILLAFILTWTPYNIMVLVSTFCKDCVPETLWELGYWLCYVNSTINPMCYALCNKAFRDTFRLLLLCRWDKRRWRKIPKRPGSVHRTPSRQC
Excerpt: Chinese hamster ovary (CHO-K1) cells stably expressing rat (r)M1 were purchased from the American Type Culture Collection and cultured according to their indicated protocol. CHO cells stably expressing human (h)M2, hM3, and hM5 were described previously (Levey, A. I., et al., J Neurosci. 1991, 11, 3218-3226.); hM1 and hM4 cDNAs were purchased from Missouri S&T cDNA Resource; rM4 cDNA was provided by T. I. Bonner (National Institutes of Health, Bethesda, Md.). rM2 and rM3 were cloned from a rat brain cDNA library and sequence verified. hM1, rM2, rM3, hM4, and rM4 cDNAs were used to stably transfect CHO-K1 cells purchased from the American Type Culture Collection using Lipofectamine® 2000 (Thermo Fisher Scientific Inc.). To make stable rM2, hM2, hM4, and rM4 cell lines for use in calcium mobilization assays, these cells also were stably transfected with a chimeric G-protein (Gqi5) (provided by B. R. Conklin, University of California, San Francisco) using Lipofectamine® 2000. rM1, hM1, rM3, hM3, rM5, and hM5 cells were grown in Ham's F-12 medium containing 10% heat-inactivated fetal bovine serum (FBS), 20 mM HEPES, and 50 μg/mL G418 sulfate. rM2-Gqi5, hM2-Gqi5, and hM4-Gqi5 cells were grown in the same medium also containing 500 μg/mL hygromycin B. Stable rM4-Gqi5 cells were grown in DMEM containing 10% heat-inactivated FBS, 20 mM HEPES, 400 μg/mL G418 sulfate, and 500 μg/mL hygromycin B.
For high throughput measurement of agonist-evoked increases in intracellular calcium, CHO-K1 cells stably expressing muscarinic receptors were plated in growth medium lacking G418 and hygromycin B at 15,000 cells/20 μL/well in Greiner 384-well black-walled, tissue culture (TC)-treated, clear-bottom plates (VWR). Cells were incubated overnight at 37° C. and 5% CO2. The next day, cells were washed using an ELX 405 (BioTek) with four washes (80 μL) of assay buffer then aspirated to 20 μL. Next, 20 μL of 16 μM Fluo-4/acetoxymethyl ester (Invitrogen, Carlsbad, Calif.) prepared as a 2.3 mM stock in DMSO and mixed in a 1:1 ratio with 10% (w/v) Pluronic F-127 and diluted in assay buffer was added to the wells and the cell plates were incubated for 50 min at 37° C. and 5% CO2. Dye was removed by washing with the ELX 405 (four 80 μL washes of assay buffer) then aspirated to 20 μL. Compound master plates were formatted in an 11 point CRC format (1:3 dilutions) in 100% DMSO with a starting concentration of 10 mM using the BRAVO liquid handler (Agilent). Test compound CRCs were then transferred to daughter plates (240 nL) using the Echo acoustic plate reformatter (Labcyte, Sunnyvale, Calif.) and then diluted into assay buffer (40 μL) to a 2× stock using a Thermo Fisher Combi (Thermo Fisher Scientific, Waltham, Mass.).
Calcium flux was measured using the Functional Drug Screening System (FDSS) 6000 (Hamamatsu Corporation, Tokyo, Japan) as an increase in the fluorescent static ratio. Compounds were applied to cells (20 μL, 2X) using the automated system of the FDSS 6000 at 4 s into the 300 s protocol and the data were collected at 1 Hz. At 144 s into the 300 s protocol, 10 μL of an EC20 concentration of the muscarinic receptor agonist acetylcholine was added (5X), followed by the addition of […] concentration of acetylcholine at the 230 s time point (5X). Agonist activity was analyzed as a concentration—dependent increase in calcium mobilization upon compound addition. Positive allosteric modulator activity was analyzed as a concentration-dependent increase in the EC20 acetylcholine response. Antagonist activity was analyzed as a concentration-dependent decrease in the EC80 acetylcholine response. Concentration-response curves were generated using a four -parameter logistical equation in XLFit curve fitting software (IDBS, Bridgewater, N.J.) for Excel (Microsoft, Redmond, Wash.) or Prism (GraphPad Software, Inc., San Diego, Calif.).
The calcium mobilization assay was also used to determine “efficacy”. […]
In the case of `Cn1cc2c(-c3cc(F)c(Cn4cnc5cccnc5c4=O)c(F)c3)cccc2n1` [Compound B12], the EC50 is reported as 3.6 µM. For `Cn1cc(-c2ccc(Cn3cnc4ncccc4c3=O)cc2)cn1` [Compound B6], the EC50 was > 10 µM. In the case of `O=c1c2ncccc2ncn1Cc1ccc(-n2cccn2)cc1` [Compound B10], the EC50 is reported as > 10 µM. `Cn1cc(-c2ccc(Cn3cnc4cccnc4c3=O)cc2)cn1` [Compound B11] was tested, and the EC50 was > 10 µM. In the case of `O=c1c2ccncc2ncn1Cc1ccc(-n2cccn2)cc1` [Compound B8], the EC50 is reported as > 10 µM. For `Cn1cc(-c2ccc(Cn3cnc4ccccc4c3=O)cc2)cn1` [Compound B3], the EC50 was > 10 µM. `Cn1cc2c(-c3cc(F)c(Cn4cnc5cnccc5c4=O)c(F)c3)cccc2n1` [Compound B7, 3-(2,6-Difluoro-4-(2-Methyl-2H-Indazol-4-yl)Benzyl)Pyrido[3,4-D]Pyrimidin-4(3H)-one] showed an EC50 of 0.6 µM. For `O=c1c2cccnc2ncn1Cc1ccc(-n2cccn2)cc1` [Compound B5], the EC50 was > 10 µM. Work on `Cn1cc(-c2ccc(Cn3cnc4cnccc4c3=O)cc2)cn1` [Compound B9] yielded an EC50 of 4.9 µM. In the case of `O=c1c2ccccc2ncn1Cc1ccc(-n2cccn2)cc1` [Compound B2], the EC50 is reported as > 10 µM.
